Test results published in article PMC12040169 (PLOS Biology, 2025).

Experiment: in vitro
Conditions: human, hela cells, % viability

Compared with `Fc1cccc(-c2nnc(SCc3nc4ccccc4[nH]3)n2-c2ccccc2)c1` [CBK263256], `O=C1c2ccccc2C(=O)N1c1ccc2nc(SCc3nc4ccccc4[nH]3)sc2c1` [CBK263368] is lower in viability at 28.5 h, 10 µM: 95.3% for the first, 95% for the second.

First: c1ccc(-n2nnnc2SCc2cccc(CSc3nnnn3-c3ccccc3)n2)cc1 [CBK263258]
Second: O=C(CSc1nnc(-c2ccccc2)c(-c2ccccc2)n1)Nc1ccc([N+](=O)[O-])cc1 [CBK263406]
The viability at 28.5 h, 10 µM of the first is lower: 90.4% for the first, 109% for the second.

First: COc1ccc(NC(=O)c2ccc(N3CCN(Cc4ccccc4)CC3)c([N+](=O)[O-])c2)cc1 [CBK263260]
Second: COc1ccc(CN2CCN(Cc3ccccc3[N+](=O)[O-])CC2)c(OC)c1 [CBK263340]
The viability at 28.5 h, 10 µM of the first is higher: 106% for the first, 91% for the second.

Going from `NNC(=O)c1cc2ccccc2cc1NS(=O)(=O)c1ccccc1` [CBK263261] to `O=C(CN(c1cccc(Cl)c1)S(=O)(=O)c1ccccc1)Nc1cccc2cccnc12` [CBK263270], the viability at 28.5 h, 10 µM rises from 84.4% to 87.9%.

Going from `O=C(CSCc1nc2ccccc2[nH]1)Nc1ccc2ccccc2c1` [CBK263262] to `Cc1cccc(C)c1NC(=O)CSCC(=O)Nc1ccc2ccccc2c1` [CBK263274], the viability at 28.5 h, 10 µM rises from 90.5% to 94.2%.

First: Cc1ccc(C(=O)O/N=C(\N)c2ccccn2)cc1 [CBK263265]
Second: Cc1oc(C(=O)Nc2ccc(C(=O)O)cc2)cc1COc1ccccc1 [CBK263273]
The viability at 28.5 h, 10 µM of the first is lower: 90.9% for the first, 94.2% for the second.

Going from `Cc1ccc(S(=O)(=O)NCCOc2ccc(Cl)cc2)cc1[N+](=O)[O-]` [CBK263268] to `CCOc1ccc(S(=O)(=O)N2CCSC2c2ccc(OC)c([N+](=O)[O-])c2)cc1` (centres unmarked) [CBK263293], the viability at 28.5 h, 10 µM falls from 106% to 101%.

First: Cc1oc(C(=O)O)cc1CSCc1cc(C(=O)O)oc1C [CBK263275]
Second: O=C(Cc1ccc([N+](=O)[O-])cc1)Nc1cc(C(=O)O)cc(C(=O)O)c1 [CBK263345]
The viability at 28.5 h, 10 µM of the first is higher: 101% for the first, 100% for the second.

Compared with `CC(C)C(=O)NC(c1ccco1)c1ccc2cccnc2c1O` (centres unmarked) [CBK263277], `Cc1ccn2c(-c3csc(Nc4ccc(C(=O)O)cc4)n3)c(C)nc2c1` [CBK263283B] is higher in viability at 28.5 h, 10 µM: 96.5% for the first, 97.5% for the second.

Compared with `O=C(CSc1nc2sc3c(c2c(=O)n1-c1ccccc1)CCCC3)NCCc1ccccc1` [CBK263280], `COc1ccc(-n2c(SCC(=O)c3ccccc3)nc(O)c(Cc3ccccc3)c2=O)cc1` [CBK263398] is higher in viability at 28.5 h, 10 µM: 93.7% for the first, 97.7% for the second.

Going from `COc1ccc(CCN2C(=O)CC(C(=O)O)S/C2=N\c2ccc(Cl)cc2)cc1OC` (centres unmarked) [CBK263286] to `COc1ccc(Cn2c(-c3ccc(OC)c(O)c3)nc3ccccc32)cc1O` [CBK263370], the viability at 28.5 h, 10 µM rises from 93.9% to 108%.

First: O=C(CSc1nnc(-c2ccccc2)[nH]1)c1cccc([N+](=O)[O-])c1 [CBK263287]
Second: O=C(N/N=C/c1ccc(O)cc1O)c1[nH]c2ccc([N+](=O)[O-])cc2c1-c1ccccc1 [CBK263328]
The viability at 28.5 h, 10 µM of the first is higher: 91% for the first, 69.7% for the second.

First: Cc1nc2sccn2c1-c1csc(Nc2cccc(C(=O)O)c2)n1 [CBK263291B]
Second: Cc1nc2ncccn2c1-c1csc(Nc2ccc(S(N)(=O)=O)cc2)n1 [CBK263294B]
The viability at 28.5 h, 10 µM of the first is higher: 91.9% for the first, 84.8% for the second.

Going from `COc1ccccc1OCCOc1ccc(/C=N/n2cnnc2)cc1` [CBK263295] to `CCOC(=O)CSc1nnc(-c2ccncc2)n1-c1ccccc1` [CBK263350], the viability at 28.5 h, 10 µM falls from 106% to 92%.

Compared with `Cc1nc(C)c(-c2csc(Nc3ncccn3)n2)s1` [CBK263297B], `Cc1ccn2c(-c3csc(Nc4ccc(S(N)(=O)=O)cc4)n3)c(C)nc2c1` [CBK263304B] is lower in viability at 28.5 h, 10 µM: 87.4% for the first, 63.7% for the second.

First: O=C(CCCN1C(=O)c2cccc3cccc(c23)C1=O)N1CCN(C/C=C/c2ccccc2)CC1 [CBK263300C]
Second: COc1ccc(S(=O)(=O)N2CCN(CCN3C(=O)c4cccc5cccc(c45)C3=O)CC2)cc1[N+](=O)[O-] [CBK263301]
The viability at 28.5 h, 10 µM of the first is higher: 103% for the first, 102% for the second.

First: CCCOc1ccc(C(C)=O)cc1CC(C(N)=O)C(N)=O [CBK263309]
Second: COc1ccc(/C=C(/NC(=O)c2cccc([N+](=O)[O-])c2)C(=O)O)cc1OC [CBK263362]
The viability at 28.5 h, 10 µM of the first is lower: 90.6% for the first, 97.1% for the second.

Going from `CC1(C)Cc2nc3nc(SCC(=O)c4ccc(Br)cc4)n(-c4ccccc4)c(=O)c3cc2CO1` [CBK263310] to `CC(C)(C)c1ccc(OCc2nnc(Sc3nc4ccc([N+](=O)[O-])cc4s3)n2-c2ccccc2)cc1` [CBK263366], the viability at 28.5 h, 10 µM rises from 91% to 105%.

First: CN1CCN(Cc2c(O)ccc3c(=O)c(-c4ccc(Cl)cc4)coc23)CC1 [CBK263314]
Second: COc1ccc(Br)cc1CN1CCN(Cc2cccc([N+](=O)[O-])c2)CC1 [CBK263347]
The viability at 28.5 h, 10 µM of the first is higher: 102% for the first, 91.6% for the second.

Going from `COc1cccc(C(=O)N2CCN(C(=O)c3cccc(F)c3)CC2)c1OC` [CBK263316] to `COc1ccc(S(=O)(=O)N2CCN(C(=O)COc3ccc4ccccc4c3)CC2)cc1` [CBK263371], the viability at 28.5 h, 10 µM falls from 105% to 91.5%.

Going from `Cc1ccc(C(=O)C2=C(O)C(=O)N(CCCn3ccnc3)C2c2cccc([N+](=O)[O-])c2)cc1` (centres unmarked) [CBK263319] to `CC(=O)C1=C(O)C(=O)N(CCN2CCNCC2)C1c1cccc([N+](=O)[O-])c1` (centres unmarked) [CBK263320], the viability at 28.5 h, 10 µM falls from 115% to 101%.

Compared with `Cc1ccc(-n2c(C)cc(/C=N/NC(=O)c3ccc(CN4CCOCC4)cc3)c2C)cc1` [CBK263324], `Cc1sc(NC(=O)CN2CCOCC2)c(C(=O)c2ccccc2)c1C` [CBK263346] is higher in viability at 28.5 h, 10 µM: 86.8% for the first, 109% for the second.

Compared with `Cc1ccc(N(CC(=O)Nc2cccnc2)S(=O)(=O)c2ccc(F)cc2)cc1` [CBK263332], `Cc1ccc(N(CC(=O)Nc2ccccc2F)S(=O)(=O)c2ccc(F)cc2)cc1` [CBK263333] is lower in viability at 28.5 h, 10 µM: 93.8% for the first, 91.9% for the second.

Going from `CS(=O)(=O)N(Cc1ccc(Cl)cc1)c1ccc(C(=O)Nc2cccnc2)cc1` [CBK263334] to `O=C(C1=C(O)C(=O)N(Cc2cccnc2)C1c1ccc(Cl)cc1Cl)c1ccccc1` (centres unmarked) [CBK263367], the viability at 28.5 h, 10 µM rises from 95.3% to 101%.

Compared with `O=C(CCCSc1nc2sc3c(c2c(=O)[nH]1)CCCC3)NCCO` [CBK263336], `COC(=O)c1c(NC(=O)COc2ccc(Br)cc2)sc2c1CCC2` [CBK263369] is lower in viability at 28.5 h, 10 µM: 90.9% for the first, 89.9% for the second.

First: N#Cc1ccccc1/C=N/NC(=O)COc1ccc(-c2cc(-c3ccccc3)c3cc(Cl)ccc3n2)cc1 [CBK263337]
Second: O=C(COc1ccc(-c2cc(-c3ccccc3)c3cc(Cl)ccc3n2)cc1)N/N=C/c1ccc2ncccc2c1 [CBK263365]
The viability at 28.5 h, 10 µM of the first is lower: 89.1% for the first, 95.8% for the second.

Compared with `COc1ccc2c(c1)-c1c(ss/c1=N\c1ccc(S(N)(=O)=O)cc1)C(C)(C)N2` [CBK263339], `CCOc1ccc(NC(=O)c2ccc(S(=O)(=O)N(C)C)cc2)c([N+](=O)[O-])c1` [CBK263396] is higher in viability at 28.5 h, 10 µM: 88.7% for the first, 90.6% for the second.

Going from `O=C(Nc1ccc(Cl)c(Cl)c1)Nc1ccccc1C(=O)O` [CBK263344] to `O=C(O)c1ccccc1-c1ccccc1C(=O)NCCc1ccccc1` [CBK263394], the viability at 28.5 h, 10 µM rises from 82% to 113%.

Compared with `CCOC(=O)c1c(NC(=O)CC2Sc3ccccc3NC2=O)sc(C)c1C` (centres unmarked) [CBK263349], `CCOC(=O)c1c(NC(=O)CC2Nc3ccccc3NC2=O)sc(C)c1C` (centres unmarked) [CBK263381] is higher in viability at 28.5 h, 10 µM: 93.5% for the first, 94.2% for the second.

First: Cc1ccc(S(=O)(=O)N(CC(O)Cn2c3ccc(Cl)cc3c3cc(Cl)ccc32)c2ccccc2)cc1 (centres unmarked) [CBK263353]
Second: Cc1ccc(S(=O)(=O)N(CCO)CC(O)Cn2c3ccc(Cl)cc3c3cc(Cl)ccc32)cc1 (centres unmarked) [CBK263392]
The viability at 28.5 h, 10 µM of the first is lower: 92.2% for the first, 97.6% for the second.

Compared with `Cc1cccc(C)c1OCC(=O)Nc1c[nH]c(=O)[nH]c1=O` [CBK263358], `CC(C)(C)c1cc(Br)ccc1OCC(=O)Nc1nc[nH]n1` [CBK263379] is higher in viability at 28.5 h, 10 µM: 46.2% for the first, 96.1% for the second.

Compared with `COc1ccc(Br)cc1/C=N/NC(=O)CC1C(=O)NN=C1C` (centres unmarked) [CBK263359], `CCc1n[nH]c(C(=O)N/N=C/c2cccnc2)c1C` [CBK263386] is lower in viability at 28.5 h, 10 µM: 99.2% for the first, 90.4% for the second.

Compared with `O=C(O)c1cc(NC(=O)c2ccco2)cc(C(=O)O)c1` [CBK263360], `O=C(O)c1cc(NC(=O)c2ccco2)cc(NC(=O)c2ccco2)c1` [CBK263388] is lower in viability at 28.5 h, 10 µM: 102% for the first, 91.8% for the second.

Going from `O=C(O)c1cccnc1SC1CC(=O)N(Cc2ccccc2)C1=O` (centres unmarked) [CBK263375] to `COc1ccc(N2C(=O)CC(Sc3ncccc3C(=O)O)C2=O)cc1` (centres unmarked) [CBK263387], the viability at 28.5 h, 10 µM falls from 119% to 95.5%.

Compared with `O=C(N/N=C\c1ccccc1C(F)(F)F)c1ccc(=O)[nH]n1` [CBK263389], `COc1cc2c(cc1NC(=O)c1ccc(C)c([N+](=O)[O-])c1)oc1ccccc12` [CBK263411] is lower in viability at 28.5 h, 10 µM: 100% for the first, 91.9% for the second.

Compared with `CCc1ccc(/C=C2/SC(=S)N(CCC(=O)O)C2=O)cc1` [CBK263390], `COc1cc(CN2CCN(Cc3ccncc3)CC2)cc(OC)c1O` [CBK263401] is lower in viability at 28.5 h, 10 µM: 120% for the first, 80.6% for the second.

Compared with `Cc1ccccc1CN1CCN(CC2CC3C=CC2C3)CC1` (centres unmarked) [CBK263402], `O=C(c1ccccc1F)N1CCN(C2CCN(Cc3ccccc3)CC2)CC1` [CBK263404] is higher in viability at 28.5 h, 10 µM: 88% for the first, 93.3% for the second.

Compared with `COc1cc(CN2CCN(C3CCCCC3)CC2)cc(OC)c1OC` [CBK263407], `O=C(O)c1cc(S(=O)(=O)N2CCCCC2)c(Cl)cc1N1CCCCC1` [CBK263408] is lower in viability at 28.5 h, 10 µM: 99.1% for the first, 93.5% for the second.

Same assay, conditions: human, hela cells, % viability, bulk resorufin, single well

Compared with `CCOc1ccc(N2C(=O)/C(=C/c3ccc(Br)cc3)C(=O)NC2=S)cc1` [CBK263305], `CCc1ccc(N2C(=O)/C(=C/c3ccc(OCC(=O)O)c(Br)c3)C(=O)NC2=S)cc1` [CBK263325] is higher in viability at 28.5 h, 10 µM: 92.7% for the first, 96.4% for the second.

Compared with `N#CC(CCN1CCOCC1)(c1ccccc1)c1ccccc1` [CBK263317], `CCN(CC)S(=O)(=O)c1ccc(N/C=C2/C(=O)NC(=O)N(c3ccccc3)C2=O)cc1` [CBK263372] is lower in viability at 28.5 h, 10 µM: 90.5% for the first, 89.9% for the second.

First: O=C(O)COc1c(Cl)cc(C=C2C(=O)NC(=O)NC2=O)cc1Cl [CBK263377]
Second: O=C(O)COc1c(Cl)cc(/C=C2\C(=O)NC(=S)N(c3ccc(F)cc3)C2=O)cc1Cl [CBK263391]
The viability at 28.5 h, 10 µM of the first is lower: 83% for the first, 107% for the second.

`CC1(C)CC(=O)C(C2(O)C(=O)Nc3ccc(Br)cc32)CO1` (centres unmarked) [CBK263410] showed a viability at 28.5 h, 10 µM of 92.3%.
